Laboratory results reported in patent publication US11969423B2, “Compounds” (GLAXOSMITHKLINE INTELLECTUAL PROPERTY DEVELOPMENT LIMITED, priority 2017, dated 2024).

Tested on: M. tuberculosis W4-E1-GFP (Mutant)
Assay type: cell-based, Mycobacterium tuberculosis
Conditions: read-out: EC50_Mutant

| SMILES | EC50 [nM] |
| --- | --- |
| O=C(CCC(F)(F)F)N1CCC(c2cnccn2)CC1 [Example 1, 4,4,4-trifluoro-1-(4-pyrazin-2-yl-1-piperidyl)butan-1-one] | 1000 to 10000 |
| O=C(CCC(F)(F)F)N1CCC(F)(c2cccnc2)CC1 [Example 2, 4,4,4-trifluoro-1-[4-fluoro-4-(3-pyridyl)-1-piperidyl]butan-1-one] | 500 to 1000 |
| O=C(CCC(F)(F)F)N1CCC(c2cncc(F)c2)CC1 [Example 3, 4,4,4-trifluoro-1-[4-(5-fluoro-3-pyridyl)-1-piperidyl]butan-1-one] | 1000 to 10000 |
| O=C(CCC(F)(F)F)N1CCC(c2ccc(F)nc2)CC1 [Example 4, 4,4,4-trifluoro-1-[4-(6-fluoro-3-pyridyl)-1-piperidyl]butan-1-one] | 1000 to 10000 |
| O=C(CCC(F)(F)F)N1CCC(c2ccc(C(F)(F)F)nc2)CC1 [Example 5, 4,4,4-trifluoro-1-[4-[6-(trifluoromethyl)-3-pyridyl]-1-piperidyl]butan-1-one] | 1000 to 10000 |
| O=C(CCC(F)(F)F)N1CCC(c2cc(C(F)(F)F)ccn2)CC1 [Example 6, 4,4,4-trifluoro-1-[4-[4-(trifluoromethyl)-2-pyridyl]-1-piperidyl]butan-1-one] | 50 to 250 |
| O=C(CCC(F)(F)F)N1CCC(c2cncc(C(F)(F)F)c2)CC1 [Example 7, 4,4,4-trifluoro-1-[4-[5-(trifluoromethyl)-3-pyridyl]-1-piperidyl]butan-1-one] | 50 to 250 |
| O=C(CCC(F)(F)F)N1CCC(c2cccc(C(F)(F)F)n2)CC1 [Example 8, 4,4,4-trifluoro-1-[4-[6-(trifluoromethyl)-2-pyridyl]-1-piperidyl]butan-1-one] | 1000 to 10000 |
| O=C(CCC(F)(F)F)N1CCC(c2cccc(F)n2)CC1 [Example 9, 4,4,4-trifluoro-1-[4-(6-fluoro-2-pyridyl)-1-piperidyl]butan-1-one] | 250 to 500 |
| COc1ccc(C2CCN(C(=O)CCC(F)(F)F)CC2)cn1 [Example 10, 4,4,4-trifluoro-1-[4-(6-methoxy-3-pyridyl)-1-piperidyl]butan-1-one] | 50 to 250 |
| O=C(CCC(F)(F)F)N1CCC(c2cccnc2C(F)(F)F)CC1 [Example 11, 4,4,4-trifluoro-1-[4-[2-(trifluoromethyl)-3-pyridyl]-1-piperidyl]butan-1-one] | 1000 to 10000 |
| COc1cncc(C2CCN(C(=O)CCC(F)(F)F)CC2)c1 [Example 12, 4,4,4-trifluoro-1-[4-(5-methoxy-3-pyridyl)-1-piperidyl]butan-1-one] | 500 to 1000 |
| O=C(CCC(F)(F)F)N1CCC(c2ccc(F)nc2F)CC1 [Example 14, 1-[4-(2,6-difluoro-3-pyridyl)-1-piperidyl]-4,4,4-trifluoro-butan-1-one] | 50 to 250 |
| O=C(CCC(F)(F)F)N1CCC(c2nccc(C(F)(F)F)n2)CC1 [Example 15] | 1000 to 10000 |
| O=C(CCC(F)(F)F)N1CCC(c2cncnc2)CC1 [Example 16] | 1000 to 10000 |
| O=C(CCC(F)(F)F)N1CCC(c2ccc(F)cn2)CC1 [Example 17, 4,4,4-trifluoro-1-[4-(5-fluoro-2-pyridyl)-1-piperidyl]butan-1-one] | 1000 to 10000 |
| O=C(CCC(F)(F)F)N1CCC(c2ccnc(C(F)(F)F)c2)CC1 [Example 18, 4,4,4-trifluoro-1-(4-(2-(trifluoromethyl)pyridin-4-yl)piperidin-1-yl)butan-1-one] | < 50 |
| O=C(CCC(F)(F)F)N1CCC(c2ccnc(F)c2)CC1 [Example 20, 4,4,4-trifluoro-1-(4-(2-fluoropyridin-4-yl)piperidin-1-yl)butan-1-one] | 50 to 250 |
| O=C(CCC(F)(F)F)N1CCC(c2cnc(C(F)(F)F)cn2)CC1 [Example 21, 4,4,4-trifluoro-1-(4-(5-(trifluoromethyl)pyrazin-2-yl)piperidin-1-yl)butan-1-one] | 1000 to 10000 |
| Cc1cc(C2CCN(C(=O)CCC(F)(F)F)CC2)ccn1 [Example 22, 4,4,4-trifluoro-1-(4-(2-methylpyridin-4-yl)piperidin-1-yl)butan-1-one] | 50 to 250 |

| SMILES | EC50 [nM] |
| --- | --- |
| O=C(CCC(F)(F)F)N1CCC(c2cnc(F)c(F)c2)CC1 [Example 23, 1-(4-(5,6-difluoropyridin-3-yl)piperidin-1-yl)-4,4,4-trifluorobutan-1-one] | 50 to 250 |
| O=C(CCC(F)(F)F)N1CCC(c2cncc(C(F)(F)F)n2)CC1 [Example 24, 4,4,4-trifluoro-1-(4-(6-(trifluoromethyl)pyrazin-2-yl)piperidin-1-yl)butan-1-one] | 500 to 1000 |
| O=C(CCC(F)(F)F)N1CCC(c2ccnc(Cl)c2)CC1 [Example 25, 1-(4-(2-chloropyridin-4-yl)piperidin-1-yl)-4,4,4-trifluorobutan-1-one] | 50 to 250 |
| O=C(CCC(F)(F)F)N1CCC(c2ccncc2F)CC1 [Example 26, 4,4,4-trifluoro-1-(4-(3-fluoropyridin-4-yl)piperidin-1-yl)butan-1-one] | 500 to 1000 |
| O=C(CCC(F)(F)F)N1CCC(c2cccc(Cl)n2)CC1 [Example 27, 1-(4-(6-chloropyridin-2-yl)piperidin-1-yl)-4,4,4-trifluorobutan-1-one] | 50 to 250 |
| O=C(CCC(F)(F)F)N1CCC(c2ncccn2)CC1 [Example 28, 4,4,4-trifluoro-1-[4-(pyrimidin-2-yl)piperidin-1-yl]butan-1-one] | 1000 to 10000 |
| O=C(CCC(F)(F)F)N1CCC(F)(c2cncc(Cl)c2)CC1 [Example 29, 1-(4-(5-chloropyridin-3-yl)-4-fluoropiperidin-1-yl)-4,4,4-trifluorobutan-1-one] | < 50 |
| O=C(CCC(F)(F)F)N1CCC(c2cncc(Cl)c2)CC1 [Example 30, 1-(4-(5-chloropyridin-3-yl)piperidin-1-yl)-4,4,4-trifluorobutan-1-one] | 50 to 250 |
| O=C(CCCC(F)(F)F)N1CCC(c2cncc(Cl)c2)CC1 [Example 31, 1-(4-(5-chloropyridin-3-yl)piperidin-1-yl)-5,5,5-trifluoropentan-1-one] | 250 to 500 |
| O=C(CCC(F)(F)F)N1CCC(c2cncc(Cl)n2)CC1 [Example 32, 1-(4-(6-chloropyrazin-2-yl)piperidin-1-yl)-4,4,4-trifluorobutan-1-one] | 50 to 250 |
| O=C(CCC(F)(F)F)N1CCC(F)(c2ccccn2)CC1 [Example 33, 4,4,4-trifluoro-1-(4-fluoro-4-(pyridin-2-yl)piperidin-1-yl)butan-1-one] | 50 to 250 |
| O=C(CCC(F)(F)F)N1CCC(F)(c2cncc(C(F)(F)F)c2)CC1 [Example 34, 4,4,4-trifluoro-1-(4-fluoro-4-(5-(trifluoromethyl)pyridin-3-yl)piperidin-1-yl)butan-1-one] | < 50 |
| O=C(CCC(F)(F)F)N1CCC(F)(c2ccnc(C(F)(F)F)c2)CC1 [Example 35, 4,4,4-trifluoro-1-(4-fluoro-4-(2-(trifluoromethyl)pyridin-4-yl)piperidin-1-yl)butan-1-one] | < 50 |
| O=C(CCC(F)(F)F)N1CCC(F)(c2cncc(Cl)n2)CC1 [Example 36, 1-(4-(6-chloropyrazin-2-yl)-4-fluoropiperidin-1-yl)-4,4,4-trifluorobutan-1-one] | 250 to 500 |
| O=C(CCC(F)(F)F)N1CCC(F)(c2ccnc(F)c2)CC1 [Example 37, 4,4,4-trifluoro-1-(4-fluoro-4-(2-fluoropyridin-4-yl)piperidin-1-yl)butan-1-one] | < 50 |
| O=C(CCC(F)(F)F)N1CCC(c2cncc(Cl)c2)C1 (stereo not drawn) [Example 38, 1-(3-(5-chloropyridin-3-yl)pyrrolidin-1-yl)-4,4,4-trifluorobutan-1-one] | < 50 |
| O=C(CCC(F)(F)F)N1CCC(F)(c2cc(C(F)(F)F)ccn2)CC1 [Example 39, 4,4,4-trifluoro-1-[4-fluoro-4-[4-(trifluoromethyl)-2-pyridyl]-1-piperidyl]butan-1-one] | 50 to 250 |
| O=C(CCC(F)(F)F)N1CCC(F)(c2ccc(F)nc2)CC1 [Example 40] | 50 to 250 |
| O=C(CCC(F)(F)F)N1CCC(F)(c2ccnc(Cl)c2)CC1 [Example 41] | < 50 |
